According to patent US6214882A, “Benzenesulphonamide derivatives, preparation thereof and therapeutical uses thereof” (Synthelabo, priority 1995, dated 2001):

Assays:
urethral smooth muscles = assay: in vitro contraction of rabbit urethra rings; type: cell-based; conditions: Oryctolagus cuniculus, read-out: urethral pD2 (converted)
Description: (§1) The in vitro activity of the compounds of the invention was studied on urethral and arterial smooth muscles.
(§2) These experiments were carried out on female New Zealand rabbits weighing from 3 to 3.5 kg. The animals were killed by vertebral dislocation, and rings of tissue were then removed from mesenteric arteries and from the urethra. These rings of tissue were immersed in a modified Krebs solution and oxygenated with a mixture of 95% O2 and 5% CO2. Each sample of tissue was subjected to a tension of 1 g, phenylephrine was then introduced at cumulative doses and the dose/response curve was established. After rinsing of the samples, the test compound was introduced at cumulative doses and the dose/response curve was established. The α1 -adrenergic effect of each compound is evaluated by calculating the pD2 (negative logarithm of the concentration of antagonist in the presence of which the effect of a dose of the agonist is divided by 2), as well as by the maximum effect representing the percentage of the maximum contraction obtained with phenylephrine (% Emax)

arterial smooth muscles = assay: in vitro contraction of rabbit mesenteric artery rings; type: cell-based; conditions: Oryctolagus cuniculus, read-out: arterial pD2 (converted)
Description: as §1, §2

- EC50 (urethral smooth muscles): 3.16 to 6.31 µM
- EC50 (arterial smooth muscles): 3.16 to 6.31 µM
SMILES: CNC[C@H](O)c1cccc(O)c1 [phenylephrine]
